Patent US9963455B2, “Pyrazolo[1,5-a]pyrimidines as antiviral compounds” (Curovir AB, priority 2014, dated 2018)
Like-named read-outs stand apart in the source and are kept apart here.

Assays:
Assay type in all cases: cell-based
Ljungan virus strain 012 = test: CPE inhibition in mammalian cell culture, LV012; conditions: Parechovirus B, read-out: antiviral effect, LV012; for inhibition at 100 µM: Conc. 0.1 mM; for inhibition at 5 µM: Conc. 5 µM; for inhibition at 1 µM: Conc. 1 µM
Ljungan virus strain 145 = test: CPE inhibition in mammalian cell culture, LV145; set-up: inhibition: dose or concentration left out as unconfirmed; conditions: Parechovirus B, read-out: antiviral effect, LV145; for inhibition at 100 µM: Conc. 0.1 mM
[1] = test system: encephalomyocarditis virus; test: CPE inhibition in mammalian cell culture, EMCV; set-up: inhibition: dose or concentration left out as unconfirmed; conditions: Cardiovirus A, read-out: antiviral effect, EMCV; for inhibition at 100 µM: Conc. 0.1 mM
Enterovirus strain 6 = test: microbe, parasite or virus in culture; set-up: inhibition: dose or concentration left out as unconfirmed; conditions: for inhibition: read-out: antiviral effect, EV6
Enterovirus strain 30 = test: CPE inhibition in mammalian cell culture, EV30; conditions: for inhibition at 100 µM: Conc. 0.1 mM; for inhibition at 5 µM: Conc. 5 µM
Enterovirus strain 71 = test: CPE inhibition in mammalian cell culture, EV71; set-up: inhibition: dose or concentration left out as unconfirmed; conditions: for inhibition at 100 µM: Conc. 0.1 mM
[2] = test system: coxsackie B virus strain 2; test: CPE inhibition in mammalian cell culture, Cox-B2; set-up: inhibition: dose or concentration left out as unconfirmed; conditions: read-out: antiviral effect, B2
[3] = test system: coxsackie B virus strain 5; test: CPE inhibition in mammalian cell culture, Cox-B5; set-up: inhibition: dose or concentration left out as unconfirmed
polio virus strain 1 = test: microbe, parasite or virus in culture; set-up: inhibition: dose or concentration left out as unconfirmed; conditions: read-out: antiviral effect, Polio 1
[4] = test system: Human parechovirus strain 1; test: CPE inhibition in mammalian cell culture, HPeV-1; conditions: Parechovirus A, read-out: antiviral effect, HPeV-1; for inhibition at 5 µM: Conc. 5 µM; for inhibition at 100 µM: Conc. 0.1 mM
[5] = test system: coxsackie B virus strain 1; test: CPE inhibition in mammalian cell culture, Cox-B1; set-up: inhibition: dose or concentration left out as unconfirmed; conditions: for inhibition at 5000 µM / inhibition / inhibition at 1000 µM: read-out: antiviral effect, B1
[6] = test system: coxsackie B virus strain 3; test: CPE inhibition in mammalian cell culture, Cox-B3; set-up: inhibition: dose or concentration left out as unconfirmed; conditions: for inhibition at 5000 µM / inhibition / inhibition at 1000 µM: read-out: antiviral effect, B3; for inhibition at 0.01 µM: read-out: % inh.
[7] = test system: coxsackie B virus strain 4; test: CPE inhibition in mammalian cell culture, Cox-B4; set-up: inhibition: dose or concentration left out as unconfirmed; conditions: for inhibition at 5000 µM / inhibition / inhibition at 1000 µM: read-out: antiviral effect, B4
EV68 = test: CPE inhibition in mammalian cell culture, EV68; set-up: antiviral effect, EV68: unit of the concentration uncertain
[8] = read-out: antiviral effect, EV30
[9] = read-out: antiviral effect, EV71
[10] = Conc. 1 µM, read-out: antiviral effect, EV30

Compound	inhibition at 100 µM (Ljungan virus strain 012)	inhibition at 100 µM (Ljungan virus strain 145)	inhibition at 100 µM [1]	inhibition (Enterovirus strain 6)	inhibition at 100 µM (Enterovirus strain 30; [8])	inhibition at 100 µM (Enterovirus strain 71; [9])	inhibition [2]	inhibition ([3]; read-out: antiviral effect, B5)	inhibition (polio virus strain 1)	inhibition at 5 µM (Ljungan virus strain 012)	inhibition at 5 µM [4]	inhibition (Enterovirus strain 6; Conc.)	inhibition at 5 µM (Enterovirus strain 30; [8])	inhibition at 5000 µM [5]	inhibition at 5000 µM [2]	inhibition at 5000 µM [7]	inhibition at 5000 µM ([3]; read-out: antiviral effect, B5)	inhibition at 5000 µM (polio virus strain 1)	antiviral effect, EV68 (EV68; Conc. 0.1 (unit uncertain))	inhibition [6]	also measured
COc1ccc(-c2cnn3c(NCc4ccncc4)cc(C)nc23)cc1OC [Ex. 100, 3-(3,4-dimethoxyphenyl)-5-methyl-N-(4-pyridylmethyl)pyrazolo[1,5-a]pyrimidin-7-amine]	0%	0%	0%	88%	78%	81%	99%	90%	83%												inhibition at 0.1 µM (Enterovirus strain 30; EV30, Conc. 0.1 μM): 78%
COc1ccc(-c2c(C)nn3c(NCc4ccc(Cl)cc4)cc(C)nc23)cc1OC [Ex. 1, N-[(4-chlorophenyl)methyl]-3-(3,4-dimethoxyphenyl)-2,5-dimethyl-pyrazolo[1,5-a]pyrimidin-7-amine]										34%	14%	90%	100%	93%	60%	86%	90%	31%			inhibition at 0.25 µM (Enterovirus strain 6; read-out: % inh.): 75%; inhibition at 5000 µM [6]: 95%
COc1ccc(-c2c(C)nn3c(NCc4ccncc4)cc(C)nc23)cc1OC [Ex. 75, 3-(3,4-dimethoxyphenyl)-2,5-dimethyl-N-(4-pyridylmethyl)pyrazolo[1,5-a]pyrimidin-7-amine]	0%	0%	0%	90%	100%	85%	100%	98%	100%										31%	89%	inhibition at 100 µM [4]: 0%; inhibition [5]: 100%; inhibition at 0.01 µM [6]: 85%; inhibition [7]: 100%
COc1ccc(CNc2cc(C)nc3c(-c4ccc(OC)c(OC)c4)c(C)nn23)cn1 [Ex. 79, 3-(3,4-dimethoxyphenyl)-N-[(6-methoxy-3-pyridyl)methyl]-2,5-dimethyl-pyrazolo[1,5-a]pyrimidin-7-amine]	0%	0%	0%	0%	10%	88%	84%	98%	79%										46%	87%	inhibition at 100 µM [4]: 0%; inhibition at 1 µM (EV68; EV68, Conc. 1 μM): 51%; inhibition [5]: 88%; inhibition [7]: 78%
COc1ccc(-c2c(C)nn3c(NCc4ccc(F)cc4)cc(C(C)C)nc23)cc1OC [Ex. 111, 3-(3,4-dimethoxyphenyl)-N-[(4-fluorophenyl)methyl]-5-isopropyl-2-methyl-pyrazolo[1,5-a]pyrimidin-7-amine]																					inhibition at 1 µM (Ljungan virus strain 012): 0%; inhibition at 1 µM (Enterovirus strain 30; [10]): 80%; antiviral effect, EV68 (EV68; Conc. 1 (unit uncertain)): 40%; inhibition at 0.1 µM ([5]; read-out: % inh.): 68%; inhibition at 1000 µM [5]: 97%; inhibition at 1000 µM [2]: 96%; inhibition at 1000 µM [6]: 100%; inhibition at 1000 µM [7]: 98%; inhibition at 1000 µM ([3]; read-out: antiviral effect, B5): 99%; inhibition at 1000 µM (polio virus strain 1): 100%
COc1ccc(-c2c(C)nn3c(NCc4ccc(O)cc4)cc(C)nc23)cc1OC [Ex. 81, 4-[[[3-(3,4-dimethoxyphenyl)-2,5-dimethyl-pyrazolo[1,5-a]pyrimidin-7-yl]amino]methyl]phenol]	0%	0%	0%	62%	97%	86%	88%	81%	89%										29%	87%	inhibition at 100 µM [4]: 0%; inhibition at 0.01 µM ([5]; read-out: % inh.): 76%; inhibition [5]: 85%; inhibition [7]: 77%
COc1ccc(-c2c(C)nn3c(NCc4ccc(NS(C)(=O)=O)cc4)cc(C)nc23)cc1OC [Ex. 80, N-[4-[[[3-(3,4-dimethoxyphenyl)-2,5-dimethyl-pyrazolo[1,5-a]pyrimidin-7-yl]amino]methyl]phenyl]methanesulfonamide]																					inhibition at 1 µM (Ljungan virus strain 012): 0%; inhibition at 1 µM ([4]; Conc. 1 µM): 0%; inhibition at 1 µM (Enterovirus strain 6; read-out: % inh.): 93%; inhibition at 1 µM (Enterovirus strain 30; [10]): 90%; antiviral effect, EV68 (EV68; Conc. 1 (unit uncertain)): 30%; inhibition at 1000 µM [5]: 78%; inhibition at 1000 µM [2]: 96%; inhibition at 1000 µM [6]: 78%; inhibition at 1000 µM [7]: 78%; inhibition at 1000 µM ([3]; read-out: antiviral effect, B5): 97%; inhibition at 1000 µM (polio virus strain 1): 85%
COc1ccc(-c2cnn3c(NCc4cccc(S(C)(=O)=O)c4)cc(C)nc23)cc1OC [Ex. 101, 3-(3,4-dimethoxyphenyl)-5-methyl-N-[(3-methylsulfonylphenyl)methyl]pyrazolo[1,5-a]pyrimidin-7-amine]	0%	0%	0%	44%	89%	99%	99%	29%	100%											90%	inhibition at 0.1 µM (Enterovirus strain 71; EV71, Conc. 0.1 μM): 99%
Cc1ccc(-c2c(C)nn3c(NCc4ccccn4)cc(C)nc23)cc1 [Ex. 33, 2,5-dimethyl-3-(p-tolyl)-N-(2-pyridylmethyl)pyrazolo[1,5-a]pyrimidin-7-amine]																					inhibition (Ljungan virus strain 145; Conc.): 69%; inhibition ([1]; Conc.): 60%; inhibition at 10 µM ([4]; Conc. 10 µM): 13%; inhibition at 10 µM (Enterovirus strain 30; Conc. 10 µM, read-out: antiviral effect, EV30): 85%; inhibition at 1 µM (Enterovirus strain 30; EV30, Conc. 1.0 μM, read-out: % inh.): 48%; inhibition (Enterovirus strain 71; Conc., read-out: antiviral effect, EV71): 0%; inhibition at 10000 µM [2]: 81%; inhibition at 10000 µM ([3]; read-out: antiviral effect, B5): 92%; inhibition at 10000 µM (polio virus strain 1): 58%
COc1ccc(-c2c(C)nn3c(NCCc4ccc(Cl)cc4)cc(C)nc23)cc1OC [Ex. 5, N-[2-(4-chlorophenyl)ethyl]-3-(3,4-dimethoxyphenyl)-2,5-dimethyl-pyrazolo[1,5-a]pyrimidin-7-amine]										18%	22%	80%	58%	79%	76%	97%	94%	68%			inhibition at 0.25 µM ([7]; read-out: % inh.): 71%
COc1ccc(-c2c(C)nn3c(NCc4cccc(S(C)(=O)=O)c4)cc(C)nc23)cc1OC [Ex. 82, 3-(3,4-dimethoxyphenyl)-2,5-dimethyl-N-[(3-methylsulfonylphenyl)methyl]pyrazolo[1,5-a]pyrimidin-7-amine]	0%	0%	0%	89%	94%		98%	89%	100%										24%	91%	inhibition [5]: 95%; inhibition at 0.01 µM [6]: 82%; inhibition [7]: 100%
COc1ccc(-c2c(C)nn3c(NCc4ccc5c(c4)OCO5)cc(C)nc23)cc1OC [Ex. 8, N-(1,3-benzodioxol-5-ylmethyl)-3-(3,4-dimethoxyphenyl)-2,5-dimethyl-pyrazolo[1,5-a]pyrimidin-7-amine]										38%	14%	88%	53%	82%	100%	89%	100%	91%			inhibition at 0.25 µM ([3]; read-out: % inh.): 100%
COc1ccc(CNc2cc(C)nc3c(-c4ccc(OC)c(OC)c4)c(C)nn23)cc1 [Ex. 2, 3-(3,4-dimethoxyphenyl)-N-[(4-methoxyphenyl)methyl]-2,5-dimethyl-pyrazolo[1,5-a]pyrimidin-7-amine]										49%	0%	83%	91%	91%	93%	86%	91%	90%			inhibition at 0.25 µM (Enterovirus strain 30; EV30, Conc. 0.25 μM): 85%; inhibition at 5000 µM [6]: 97%
